Test results from BindingDB's records for doi:10.1007/bf00178951 (Sandoz Pharma, 1994).

Molecular target: G_PROTEIN_RECEP_F1_2 domain-containing protein (Sus scrofa, UniProt I3LCE8)
Sequence (I3LCE8 whole entry): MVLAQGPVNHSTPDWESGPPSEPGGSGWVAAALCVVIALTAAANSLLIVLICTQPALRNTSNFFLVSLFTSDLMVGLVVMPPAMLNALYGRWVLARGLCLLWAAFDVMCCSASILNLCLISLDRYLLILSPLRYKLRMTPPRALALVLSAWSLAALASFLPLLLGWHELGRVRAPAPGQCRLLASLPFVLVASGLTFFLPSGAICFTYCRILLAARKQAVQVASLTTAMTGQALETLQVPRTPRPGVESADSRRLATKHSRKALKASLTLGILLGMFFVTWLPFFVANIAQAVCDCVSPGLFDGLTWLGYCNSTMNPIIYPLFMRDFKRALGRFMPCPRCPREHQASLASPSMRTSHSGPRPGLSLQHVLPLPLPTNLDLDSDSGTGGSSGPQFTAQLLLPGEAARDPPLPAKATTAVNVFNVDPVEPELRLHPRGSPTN

Ki: > 10 µM
SMILES: O=C(c1ccc(F)cc1)C1CCN(CCn2c(=O)[nH]c3ccccc3c2=O)CC1 [3-(2-{4-[(4-fluorophenyl)carbonyl]piperidin-1-yl}ethyl)-1,2,3,4-tetrahydroquinazoline-2,4-dione]
